# Laboratory results reported in patent publication US8946282B2, “Indolin-2-one derivatives as protein kinase inhibitors” (Annji Pharmaceutical Co., Ltd., priority 2012, dated 2015).
# Legend:
# aurora B = aurora B (Homo sapiens, UniProt Q96GD4); experiment: radioisotope-based P81 filter-binding assay, aurora B kinase; type: biochemical; settings: for IC50: averaged from two independent dose-response curves, read-out: Enzyme assay IC50 Aur B; for inhibition at 1 µM: compound at 1.0 μM, mean values (n=2), read-out: percent inhibition of enzyme catalytic activity, Aur B (numbers in parentheses)
# Sequence of aurora B (Q96GD4 whole entry): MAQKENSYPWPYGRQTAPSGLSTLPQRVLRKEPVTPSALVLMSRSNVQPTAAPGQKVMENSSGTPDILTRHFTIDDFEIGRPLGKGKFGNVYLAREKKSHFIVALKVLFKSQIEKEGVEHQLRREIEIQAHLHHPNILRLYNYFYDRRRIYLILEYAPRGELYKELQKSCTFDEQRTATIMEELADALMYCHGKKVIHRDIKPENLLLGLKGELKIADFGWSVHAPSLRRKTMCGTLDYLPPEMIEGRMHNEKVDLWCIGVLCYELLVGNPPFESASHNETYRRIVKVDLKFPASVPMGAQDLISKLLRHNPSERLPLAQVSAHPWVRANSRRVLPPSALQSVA
# Method: (§1) Compounds of formula (I)-(IV) were evaluated for abilities in inhibiting protein kinases aurora B and FLT-3 activity using radioisotope-based P81 filter-binding assay (Table 1).
# FLT-3 = target: T1, FLT-3 (Homo sapiens, UniProt P36888); experiment: radioisotope-based P81 filter-binding assay, FLT-3 kinase; type: biochemical; settings: for IC50: averaged from two independent dose-response curves, read-out: Enzyme assay IC50 FLT-3; for inhibition at 1 µM: compound at 1.0 μM, mean values (n=2), read-out: percent inhibition of enzyme catalytic activity, FLT-3 (numbers in parentheses)
# T1 sequence (P36888 27-993): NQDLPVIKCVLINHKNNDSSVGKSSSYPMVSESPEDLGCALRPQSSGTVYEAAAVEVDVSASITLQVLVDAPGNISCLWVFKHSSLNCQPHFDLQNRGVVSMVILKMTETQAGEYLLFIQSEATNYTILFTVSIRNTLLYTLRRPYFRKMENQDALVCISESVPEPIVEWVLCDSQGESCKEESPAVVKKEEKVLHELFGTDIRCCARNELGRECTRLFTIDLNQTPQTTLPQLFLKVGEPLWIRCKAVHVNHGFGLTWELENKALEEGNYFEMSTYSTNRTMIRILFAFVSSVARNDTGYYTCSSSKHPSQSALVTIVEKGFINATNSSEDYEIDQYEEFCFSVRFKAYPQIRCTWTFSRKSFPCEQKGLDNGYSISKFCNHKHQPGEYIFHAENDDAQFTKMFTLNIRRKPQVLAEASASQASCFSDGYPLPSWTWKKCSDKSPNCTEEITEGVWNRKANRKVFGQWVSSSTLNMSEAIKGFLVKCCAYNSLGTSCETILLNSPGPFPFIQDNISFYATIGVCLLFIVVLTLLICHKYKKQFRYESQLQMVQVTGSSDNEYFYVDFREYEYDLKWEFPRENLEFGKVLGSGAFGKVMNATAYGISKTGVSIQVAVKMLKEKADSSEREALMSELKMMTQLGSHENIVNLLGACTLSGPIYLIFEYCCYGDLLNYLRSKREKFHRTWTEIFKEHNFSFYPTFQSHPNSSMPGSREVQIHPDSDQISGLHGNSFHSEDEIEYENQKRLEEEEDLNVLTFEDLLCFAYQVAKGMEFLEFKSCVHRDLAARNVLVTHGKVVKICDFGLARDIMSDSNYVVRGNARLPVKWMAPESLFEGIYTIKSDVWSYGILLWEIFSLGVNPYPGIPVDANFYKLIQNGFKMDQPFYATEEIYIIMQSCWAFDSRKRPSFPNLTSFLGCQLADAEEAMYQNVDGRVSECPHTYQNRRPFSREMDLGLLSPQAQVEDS
# Method: as §1
IC50 (aurora B) [nM],IC50 (FLT-3) [nM],melting point,inhibition at 1 µM (aurora B) [%],inhibition at 1 µM (FLT-3) [%],Structure (SMILES)
2.1,904,270 to 275 °C (dec.),,,"Cc1[nH]c(/C=C2\C(=O)Nc3cc(NC(=O)NC(=O)c4ccccc4)ccc32)c(C)c1C(=O)O [D32, (Z)-5-((6-(3-benzoylureido)-2-oxoindolin-3-ylidene)methyl)-2,4-dimethyl-1H-pyrrole-3-carboxylic acid]"
16.4,106,248 to 253 °C (dec.),,,COc1ccc(C(=O)NC(=O)Nc2ccc3c(c2)NC(=O)/C3=C\c2[nH]c(C)c(CCC(=O)N3CCOCC3)c2C)c(F)c1 [D67]
> 10000,854,> 300 °C,,,"O=C1Nc2cc(NC(=O)N3CCN(c4ccc(Cl)cc4)C3=O)ccc2/C1=C/c1ccc[nH]1 [D84, (Z)—N-(3-((1H-pyrrol-2-yl)methylene)-2-oxoindolin-6-yl)-3-(4-chlorophenyl)-2-oxoimidazolidine-1-carboxamide]"
6.7,50.4,> 300 °C,,,"Cc1[nH]c(/C=C2\C(=O)Nc3cc(NC(=O)c4c[nH]cc(-c5cc(F)cc(F)c5)c4=O)ccc32)c(C)c1CCC(=O)O [D148, (Z)-3-(5-((6-(5-(3,5-difluorophenyl)-4-oxo-1,4-dihydropyridine-3-carboxamido)-2-oxoindolin-3-ylidene)methyl)-2,4-dimethyl-1H-pyrrol-3-yl)propanoic acid]"
16.8,79.5,273 to 278 °C (dec.),,,"COc1ccc(C(=O)NC(=O)Nc2ccc3c(c2)NC(=O)/C3=C\c2[nH]c(C)c(C(=O)N3CCOCC3)c2C)c(F)c1 [D66, (Z)—N-(3-((3,5-dimethyl-4-(morpholine-4-carbonyl)-1H-pyrrol-2-yl)methylene)-2-oxoindolin-6-ylcarbamoyl)-2-fluoro-4-methoxybenzamide]"
,,274 to 279 °C (dec.),55.9,43.2,"COc1ccc(/C=C2/C(=O)Nc3cc(NC(=O)NC(=O)c4ccc(OC)cc4)ccc32)cc1 [D19, (E)-4-methoxy-N-(3-(4-methoxybenzylidene)-2-oxoindolin-6-yl-carbamoyl)benzamide]"
> 1000,> 1000,243 °C,,,"Cc1cc(C(=O)O)[nH]c1/C=C1\C(=O)Nc2cc(NC(=O)c3c[nH]cc(-c4ccc(F)cc4)c3=O)ccc21 [D146, (Z)-5-((6-(5-(4-fluorophenyl)-4-oxo-1,4-dihydropyridine-3-carboxamido)-2-oxoindolin-3-ylidene)methyl)-4-methyl-1H-pyrrole-2-carboxylic acid]"
135,1.2,235 °C (dec.),,,COc1ccc(-c2c[nH]cc(C(=O)Nc3ccc4c(c3)NC(=O)/C4=C\c3[nH]c(C)c(C(=O)N4CCN(C)CC4)c3C)c2=O)cc1 [D154]
824,498,> 300 °C,,,"O=C1Nc2cc(NC(=O)N3CCN(c4ccc(C(F)(F)F)cc4)C3=O)ccc2/C1=C/c1ccc[nH]1 [D88, (Z)—N-(3-((1H-pyrrol-2-yl)methylene)-2-oxoindolin-6-yl)-2-oxo-3-(4-(trifluoromethyl)phenyl)imidazolidine-1-carboxamide]"
1.9,6.1,240 to 245 °C (dec.),,,"Cc1cccc(C(=O)NC(=O)Nc2ccc3c(c2)NC(=O)/C3=C\c2[nH]c(C)c(CCC(=O)O)c2C)c1 [D40, (Z)-3-(2,4-dimethyl-5-((6-(3-(3-methylbenzoyl)ureido)-2-oxoindolin-3-ylidene)-methyl)-1H-pyrrol-3-yl)propanoic acid]"
19.9,1800,284 to 289 °C (dec.),,,"O=C1Nc2cc(NC(=O)N3CCN(C4CC4)C3=O)ccc2/C1=C/c1ccc[nH]1 [D81, (Z)—N-(3-((1H-pyrrol-2-yl)methylene)-2-oxoindolin-6-yl)-3-cyclopropyl-2-oxoimidazolidine-1-carboxamide]"
1,> 1000,292 to 297 °C (dec.),,,"COc1ccc(C(=O)NC(=O)Nc2cc3c(cc2F)/C(=C/c2[nH]c(C)c(CC(=O)O)c2C)C(=O)N3)cc1 [D50, (Z)-2-(5-((5-fluoro-6-(3-(4-methoxybenzoyl)ureido)-2-oxoindolin-3-ylidene)-methyl)-2,4-dimethyl-1H-pyrrol-3-yl)acetic acid]"
19.3,223,> 300 °C,,,"Cc1ccc(N2CCN(C(=O)Nc3ccc4c(c3)NC(=O)/C4=C\c3ccc[nH]3)C2=O)cc1 [D92, (Z)—N-(3-((1H-pyrrol-2-yl)methylene)-2-oxoindolin-6-yl)-2-oxo-3-p-tolylimida-zolidine-1-carboxamide]"
,,286 to 291 °C (dec.),20.9,10,"COc1ccc(C(=O)NC(=O)Nc2ccc3c(c2)NC(=O)/C3=C\c2ccc(C(=O)O)[nH]2)cc1 [D45, (Z)-5-((6-(3-(4-methoxybenzoyl)ureido)-2-oxoindolin-3-ylidene)-methyl)-1H-pyrrole-2-carboxylic acid]"
1.2,> 1000,293 to 298 °C (dec.),,,"Cc1[nH]c(/C=C2\C(=O)Nc3cc(NC(=O)NC(=O)c4ccc([N+](=O)[O-])cc4)ccc32)c(C)c1C(=O)O [D38, (Z)-2,4-dimethyl-5-((6-(3-(4-nitrobenzoyl)ureido)-2-oxoindolin-3-ylidene)methyl)-1H-pyrrole-3-carboxylic acid]"
35.1,> 10000,> 300 °C,,,"COc1ccc(C(=O)NC(=O)Nc2cc3c(cc2F)/C(=C/c2ccc[nH]2)C(=O)N3)cc1 [D48, (Z)—N-(3-((1H-pyrrol-2-yl)methylene)-5-fluoro-2-oxoindolin-6-ylcarbamoyl)-4-methoxybenzamide]"
3.5,217,> 300 °C,,,"Cc1[nH]c(/C=C2\C(=O)Nc3cc(NC(=O)N4CCN(C5CC5)C4=O)ccc32)c(C)c1C(=O)O [D96, (Z)-5-((6-(3-cyclopropyl-2-oxoimidazolidine-1-carboxamido)-2-oxoindolin-3-ylidene)methyl)-2,4-dimethyl-1H-pyrrole-3-carboxylic acid]"
2.3,111,295 to 300 °C (dec.),,,"COc1ccc(C(=O)NC(=O)Nc2ccc3c(c2)NC(=O)/C3=C\c2[nH]c(C)c(C(=O)O)c2C)c(F)c1 [D57, (Z)-5-((6-(3-(2-fluoro-4-methoxybenzoyl)ureido)-2-oxoindolin-3-ylidene)methyl)-2,4-dimethyl-1H-pyrrol-3-carboxylic acid]"
30.6,57.1,250 to 255 °C (dec.),,,"COc1ccc(C(=O)NC(=O)Nc2ccc3c(c2)NC(=O)/C3=C\c2[nH]c(C)c(C(=O)N3CCN(C)CC3)c2C)c(F)c1 [D64, (Z)—N-(3-((3,5-dimethyl-4-(4-methylpiperazine-1-carbonyl)-1H-pyrrol-2-yl)methylene)-2-oxoindolin-6-ylcarbamoyl)-2-fluoro-4-methoxybenzamide]"
> 1000,> 1000,> 300 °C,,,"O=C1Nc2c(NC(=O)c3cccn(-c4ccc(F)cc4)c3=O)cccc2/C1=C/c1ccc[nH]1 [D118, (Z)—N-(3-((1H-pyrol-2-yl)methylene)-2-oxoindolin-7-yl)-1-(4-fluorophenyl)-2-oxo-1,2-dihydropyridine-3-carboxamide]"
3.7,194,> 300 °C,,,"Cc1[nH]c(/C=C2\C(=O)Nc3cc(NC(=O)c4c[nH]cc(C)c4=O)ccc32)c(C)c1C(=O)O [D143, (Z)-2,4-dimethyl-5-((6-(5-methyl-4-oxo-1,4-dihydropyridine-3-carboxamido)-2-oxoindolin-3-ylidene)methyl)-1H-pyrrole-3-carboxylic acid]"
1100,70.6,267 to 272 °C (dec.),,,"CN1CCN(C(=O)Nc2ccc3c(c2)NC(=O)/C3=C\c2ccc[nH]2)C1=O [D80, (Z)—N-(3-((1H-pyrrol-2-yl)methylene)-2-oxoindolin-6-yl)-3-methyl-2-oxoimidazolidine-1-carboxamide]"
